# Tests used:
# [1] = target: T1, human TLR7 (Homo sapiens, UniProt Q9NYK1); assay: In vitro human TLR7 binding reporter assay (HEK-Blue, NF-kB/AP1-inducible SEAP); assay type: cell-based; settings: HEK-Blue human TLR7 SEAP reporter cells; activity range classes; read-out: TLR7 Agonist EC50
# T1 construct: host or cells: human HEK-Blue cells (HEK293-derived) co-expressing TLR7 and an NF-kB/AP1-inducible SEAP reporter
# T1 sequence (Q9NYK1 27-1049): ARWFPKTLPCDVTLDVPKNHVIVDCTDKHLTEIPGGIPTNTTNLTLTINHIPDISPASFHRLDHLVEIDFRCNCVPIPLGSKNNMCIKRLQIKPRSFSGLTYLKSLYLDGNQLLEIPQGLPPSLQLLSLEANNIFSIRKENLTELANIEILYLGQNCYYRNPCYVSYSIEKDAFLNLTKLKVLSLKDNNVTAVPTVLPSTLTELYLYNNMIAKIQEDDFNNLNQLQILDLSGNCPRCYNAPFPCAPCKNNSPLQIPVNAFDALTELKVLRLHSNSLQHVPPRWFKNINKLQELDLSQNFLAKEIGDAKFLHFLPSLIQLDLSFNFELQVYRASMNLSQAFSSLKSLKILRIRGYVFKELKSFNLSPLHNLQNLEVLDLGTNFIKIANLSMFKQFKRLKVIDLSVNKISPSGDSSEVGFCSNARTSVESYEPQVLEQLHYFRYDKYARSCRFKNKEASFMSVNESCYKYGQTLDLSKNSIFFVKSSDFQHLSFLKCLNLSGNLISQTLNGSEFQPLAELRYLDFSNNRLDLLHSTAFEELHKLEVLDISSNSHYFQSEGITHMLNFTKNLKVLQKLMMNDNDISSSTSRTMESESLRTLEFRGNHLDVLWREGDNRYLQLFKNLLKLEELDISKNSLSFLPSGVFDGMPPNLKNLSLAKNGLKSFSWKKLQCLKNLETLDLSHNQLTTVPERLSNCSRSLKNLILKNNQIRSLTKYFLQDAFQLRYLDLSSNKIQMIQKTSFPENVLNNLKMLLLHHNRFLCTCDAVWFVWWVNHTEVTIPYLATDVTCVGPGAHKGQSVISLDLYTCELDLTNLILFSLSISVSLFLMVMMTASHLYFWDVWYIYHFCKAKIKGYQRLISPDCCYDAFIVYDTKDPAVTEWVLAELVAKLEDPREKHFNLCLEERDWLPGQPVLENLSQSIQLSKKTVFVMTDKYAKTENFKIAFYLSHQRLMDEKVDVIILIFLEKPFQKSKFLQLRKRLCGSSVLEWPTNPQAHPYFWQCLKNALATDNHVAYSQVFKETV
# Procedure: (§1) In Vitro Human TLR7 and TLR8 Binding Reporter Assays
# (§2) Logarithmically-growing human HEK-Blue cells co-expressing a TLR7 or TLR8 gene and a NF-kB/AP1-inducible SEAP (secreted embryonic alkaline phosphatase; Invivogen, San Diego, CA) reporter gene are added to individual wells of a 384-well plate (15,000 cells per 20 μL per well) and maintained for 24 h at 37° C., 5% CO2. Test compounds or DMSO are distributed to separate wells the next day using acoustic liquid handling technology (100 nL per well) and cells are subsequently incubated for 18 h at 37° C., 5% CO2. Cellular SEAP production is measured using an Envision plate reader instrument thirty minutes after adding freshly-made Quanti-Blue reagent (prepared by following manufacturer instructions; Invivogen, San Diego, CA) to the HEK-Blue TLR Nf-kB-SEAP cell reactions. All EC50 values (half-maximal effective concentration) are determined using proprietary data analysis software. Normalized EC50 value=absolute value determined by setting 100% Ymax using a reference standard RLU (relative light unit) values from cells treated with 50 μM of the reference standard.
# [2] = target: T2, human TLR8 (Homo sapiens, UniProt Q9NR97); assay: In vitro human TLR8 binding reporter assay (HEK-Blue, NF-kB/AP1-inducible SEAP); assay type: cell-based; settings: HEK-Blue human TLR8 SEAP reporter cells; activity range classes; read-out: TLR8 Agonist EC50
# T2 construct: host or cells: human HEK-Blue cells (HEK293-derived) co-expressing TLR8 and an NF-kB/AP1-inducible SEAP reporter
# T2 sequence (Q9NR97 27-1041): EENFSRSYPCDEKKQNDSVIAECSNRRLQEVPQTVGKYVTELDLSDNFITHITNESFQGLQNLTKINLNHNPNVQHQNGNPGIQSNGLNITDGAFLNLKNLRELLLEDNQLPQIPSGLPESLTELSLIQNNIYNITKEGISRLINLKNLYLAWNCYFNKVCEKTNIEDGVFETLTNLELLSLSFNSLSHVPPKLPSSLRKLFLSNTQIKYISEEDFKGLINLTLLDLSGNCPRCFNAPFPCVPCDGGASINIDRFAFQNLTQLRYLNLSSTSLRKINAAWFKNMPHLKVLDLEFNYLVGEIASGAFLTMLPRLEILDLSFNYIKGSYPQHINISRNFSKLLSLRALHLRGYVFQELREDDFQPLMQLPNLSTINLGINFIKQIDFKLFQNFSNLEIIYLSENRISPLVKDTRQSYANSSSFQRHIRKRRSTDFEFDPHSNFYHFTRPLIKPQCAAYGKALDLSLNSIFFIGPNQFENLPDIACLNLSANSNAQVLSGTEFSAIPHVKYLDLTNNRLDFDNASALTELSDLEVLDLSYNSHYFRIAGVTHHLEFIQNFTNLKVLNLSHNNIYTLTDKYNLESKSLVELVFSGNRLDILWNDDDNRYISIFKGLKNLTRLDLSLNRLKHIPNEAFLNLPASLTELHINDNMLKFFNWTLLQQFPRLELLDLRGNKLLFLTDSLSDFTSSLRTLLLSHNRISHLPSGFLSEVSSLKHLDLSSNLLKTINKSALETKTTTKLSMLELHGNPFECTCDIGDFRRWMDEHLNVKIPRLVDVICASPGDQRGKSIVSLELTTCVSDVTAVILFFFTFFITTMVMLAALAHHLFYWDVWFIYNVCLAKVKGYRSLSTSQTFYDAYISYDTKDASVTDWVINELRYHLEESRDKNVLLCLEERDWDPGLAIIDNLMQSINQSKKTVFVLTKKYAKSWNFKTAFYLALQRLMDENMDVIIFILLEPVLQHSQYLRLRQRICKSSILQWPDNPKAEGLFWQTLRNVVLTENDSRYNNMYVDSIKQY
# Procedure: as §1, §2
# [3] = system: IL-1β production in PMA-differentiated THP-1 cells; assay: Measurement of IL-1β production in PMA-differentiated THP-1 cells (ELISA, 4 hours); assay type: cell-based, human; settings: Homo sapiens, THP-1, human IL-1β production, assayed using one or more of the described procedures, read-out: NLRP3 hIL1B IC50
# Procedure: Measurement of IL-1β Production in PMA-Differentiated THP-1 Cells THP-1 cells were purchased from the American Type Culture Collection and sub-cultured according to instructions from the supplier. Prior to experiments, cells were cultured in RPMI 1640 containing 10% heat inactivated FBS, penicillin (100 units/ml) and streptomycin (100 μg/ml), and maintained in log phase prior to experimental setup. Prior to the experiment THP-1 were treated with PMA (Phorbol 12-myristate 13-acetate) (10 μg/ml) for 24 hours. The day of the experiment the media was removed and attaching cells were treated with trypsin for 2 minutes, cells were then collected, washed with PBS (phosphate buffer saline), spin down, resuspended in 2% heat inactivated FBS with RPMI at a concentration of 1×10^6 cells/ml, and 100 μl was plated in a 96 well plate. Compounds were dissolved in dimethyl sulfoxide (DMSO) and added to the culture medium to achieve desired concentration (e.g. 100, 30, 10, 3, 1, 0.3 or 0.1 μM). Cells were incubated with compounds for 4 hours. Cell free supernatant was collected and the production of IL-1β was evaluated by ELISA. A vehicle only control was run concurrently with each experiment. Final DMSO concentration was 1%.
smiles,measurement,setting,value
"Nc1cc(OC[C@H](O)CN2CCOCC2)c2ccc(-c3ccn[nH]3)cc2n1 [Compound 349, (R)-1-((2-amino-7-(1H-pyrazol-5-yl)quinolin-4-yl)oxy)-3-morpholinopropan-2-ol]",EC50,[1],> 100 µM
same,EC50,[2],> 100 µM
same,IC50,[3],5.8 µM
Nc1cc(NCc2ccccc2)c2ccc(-c3ccn[nH]3)cc2n1 [Compound 256],EC50,[1],> 100 µM
same,EC50,[2],> 100 µM
same,IC50,[3],0.22 µM
CC(=O)NCCCCc1cc2ccc(-c3cc[nH]n3)cc2nc1N [Compound 109],EC50,[1],> 100 µM
same,EC50,[2],> 100 µM
same,IC50,[3],4.33 µM
Nc1cc(NC[C@@H]2CNCCO2)c2ccc(-c3ccn[nH]3)cc2n1 [Compound 267],EC50,[1],> 100 µM
same,EC50,[2],> 100 µM
same,IC50,[3],1.59 µM
COCCCOc1cc(N)nc2cc(-c3ccn[nH]3)ccc12 [Compound 193],EC50,[1],> 100 µM
same,EC50,[2],> 100 µM
same,IC50,[3],1.69 µM
Nc1cc(NC2CCCOC2)c2ccc(-c3ccn[nH]3)cc2n1 (stereo not drawn) [Compound 279],EC50,[1],> 100 µM
same,EC50,[2],> 100 µM
same,IC50,[3],0.33 µM
CN(Cc1cc[nH]n1)c1cc(N)nc2cc(-c3ccn[nH]3)ccc12 [Compound 263],EC50,[1],> 100 µM
same,EC50,[2],> 100 µM
same,IC50,[3],2.87 µM
Nc1cc(NCCNC(=O)c2ccccn2)c2ccc(-c3ccn[nH]3)cc2n1 [Compound 204],EC50,[1],> 100 µM
same,EC50,[2],> 100 µM
same,IC50,[3],0.64 µM
"CN(C)C(=O)NCCNc1cc(N)nc2cc(-c3ccn[nH]3)ccc12 [Compound 208, 3-(2-((2-amino-7-(1H-pyrazol-5-yl)quinolin-4-yl)amino)ethyl)-1,1-dimethylurea]",EC50,[1],> 100 µM
same,EC50,[2],> 100 µM
same,IC50,[3],1.55 µM
Cn1nncc1COc1cc(N)nc2cc(-c3ccn[nH]3)ccc12 [Compound 311],EC50,[1],> 100 µM
same,EC50,[2],> 100 µM
same,IC50,[3],3.13 µM
Cn1ccc(CNc2cc(N)nc3cc(-c4ccn[nH]4)ccc23)n1 [Compound 229],EC50,[1],> 100 µM
same,EC50,[2],> 100 µM
same,IC50,[3],0.09 µM
Nc1cc(NCCn2ccnc2)c2ccc(-c3ccn[nH]3)cc2n1 [Compound 152],EC50,[1],> 100 µM
same,EC50,[2],> 100 µM
same,IC50,[3],1.03 µM
Cn1ncnc1COc1cc(N)nc2cc(-c3ccn[nH]3)ccc12 [Compound 312],EC50,[1],> 100 µM
same,EC50,[2],> 100 µM
same,IC50,[3],1.59 µM
CN1CCN(c2cc(N)nc3cc(-c4ccn[nH]4)ccc23)CC1 [Compound 130],EC50,[2],> 100 µM
same,IC50,[3],2.76 µM
Nc1cc(N[C@@H]2CCOC2)c2ccc(-c3ccn[nH]3)cc2n1 [Compound 276],EC50,[1],> 100 µM
same,EC50,[2],> 100 µM
same,IC50,[3],0.52 µM
Nc1cc(OCCCC(F)(F)F)c2ccc(-c3ccsc3)cc2n1 [Compound 337],EC50,[1],> 100 µM
same,EC50,[2],> 100 µM
same,IC50,[3],9.17 µM
CC(=O)NCCOc1cc(N)nc2cc(-c3ccn[nH]3)ccc12 [Compound 188],EC50,[1],> 100 µM
same,EC50,[2],> 100 µM
same,IC50,[3],6.31 µM
Nc1cc(N2CCC[C@@H]2CO)c2ccc(-c3ccn[nH]3)cc2n1 [Compound 272],EC50,[1],> 100 µM
same,EC50,[2],> 100 µM
same,IC50,[3],6.22 µM
Nc1cc(OCCCN2CCCC2=O)c2ccc(-c3ccn[nH]3)cc2n1 [Compound 181],EC50,[2],> 100 µM
same,IC50,[3],9.92 µM
Cc1n[nH]c(-c2cc3ccc(-c4ccn[nH]4)cc3nc2N)n1 [Compound 126],IC50,[3],3.53 µM
Nc1cc(NCCCO)c2ccc(-c3ccn[nH]3)cc2n1 [Compound 171],EC50,[2],> 100 µM
same,IC50,[3],0.38 µM
CN1CCN(CCCCOc2cc(N)nc3cc(-c4ccn[nH]4)ccc23)CC1 [Compound 184],EC50,[2],> 100 µM
same,IC50,[3],7.27 µM
Nc1nc2cc(-c3ccn[nH]3)ccc2cc1CNCC1CCCO1 (stereo not drawn) [Compound 117],IC50,[3],5.8 µM
CN1CCN(CCc2cc3ccc(-c4ccn[nH]4)cc3nc2N)CC1 [Compound 122],IC50,[3],1.87 µM
Nc1nc2cc(-c3ccn[nH]3)ccc2cc1C1(CO)CC1 [Compound 120],IC50,[3],4.24 µM
Nc1nc2cc(-c3ccn[nH]3)ccc2cc1CCN1CCOCC1 [Compound 121],EC50,[2],> 100 µM
same,IC50,[3],3.03 µM
"CN(C)CCCNc1cc(N)nc2cc(-c3ccn[nH]3)ccc12 [Compound 168, N4-(3-(dimethylamino)propyl)-7-(1H-pyrazol-5-yl)quinoline-2,4-diamine]",EC50,[2],> 100 µM
same,IC50,[3],2.4 µM
Nc1nc2cc(-c3ccn[nH]3)ccc2cc1-c1cccc(CO)n1 [Compound 125],IC50,[3],1.98 µM
"Nc1nc2cc(-c3ccn[nH]3)ccc2cc1-c1cnc[nH]1 [Compound 123, 3-(1H-imidazol-5-yl)-7-(1H-pyrazol-5-yl)quinolin-2-amine]",IC50,[3],3.01 µM
"Nc1cc(NCCC2CCOCC2)c2ccc(-n3cccn3)cc2n1 [Compound 346, 7-(1H-pyrazol-1-yl)-N4-(2-(tetrahydro-2H-pyran-4-yl)ethyl)quinoline-2,4-diamine]",EC50,[1],> 100 µM
same,IC50,[3],0.76 µM
"Nc1cc(CCCOCc2ccccc2)c2ccc(-c3cc[nH]n3)cc2n1 [Compound 108, 4-[3-(benzyloxy)propyl]-7-(1H-pyrazol-3-yl)quinolin-2-amine]",IC50,[3],1.15 µM
